# US5270334A, “4-methoxy-5-methyl-pyran-3-ol natural products and derivatives thereof” (E. R. Squibb & Sons, Inc., priority 1992, dated 1993)
# Like-named read-outs stand apart in the source and are kept apart here.
# Key:
# [1] = target: T1, lanosterol demethylase of Candida albicans (Candida albicans, UniProt P10613); assay: inhibition of lanosterol demethylase, radiolabeled metabolic assay (14C-acetate, lanosterol accumulation); assay type: cell-based; conditions: Candida albicans SC5314, 14C-acetate, 30°
# T1 construct: 14C-acetate sterol labelling, TLC
# Protocol: (§1) The inhibition of lanosterol demethylase was determined by two methods: the spectrophotometric carbon monoxide binding assay of Omura and Sato (J. Biol. Chem. 239:2370-2378, 1964) and by a radiolabeled metabolic assay.
# The ability of scopularin and its alcohol to inhibit the lanosterol demethylase of Candida albicans can also be visualized by a metabolic assay. Candida albicans, SC5314, was grown overnight at 30° with shaking in the same medium as that used above. Cells were harvested by centrifugation and resuspended in water to give an optical density of 0.3 at 660 nm. 750 μl of this cell suspension, 300 μl of a medium containing 0.35 g Difco yeast nitrogen base without amino acids, 1 g glucose and distilled water to 10 ml, 100 μl of test material and distilled water were combined to give a final volume of 1.425 ml. This was incubated for 15 minutes at 30° C. with shaking, then 3 μCi ^14 C-acetate was added and continued to incubate for 1 hour. Cells were harvested by centrifugation and extracted with 2×0.5 ml methanol; centrifuged, decanted supernate and repeated the extraction with […] methanol-benzene (1:1). Centrifuged, decanted; combined supernates, dried and resuspended in 100 μl chloroform-methanol (1:1). The aliquots were spotted onto silica gel 60 (Merck) plates and developed chromatographically in a solvent containing dichloromethane-acetone (60:1). […]
# [2] = target: T2, lanosterol demethylase (Candida albicans, UniProt P10613); assay: inhibition of lanosterol demethylase, spectrophotometric carbon monoxide binding assay; conditions: Candida albicans SGY677; read-out: concentration which gives 50% inhibition of carbon monoxide binding
# T2 construct: endogenous in cells; host or cells: Candida albicans SGY677
# Protocol: as §1
# Cells of Candida albicans, SGY677, were grown overnight without shaking at 30° C. in a medium consisting of yeast extract 1%, peptone 2%, glucose 2% and distilled water. Cells were harvested by centrifugation and resuspended in 0.65M mannitol to an optical density at 600 nm of 2.5. At this density 1 ml of cells was equal to 6.7 mg constant dry weight (105° C. for 18 hours).
# Scopularin and its alcohol derivative of Example 4 were added to the enzyme and the inhibition of carbon monoxide binding determined over a range of inhibitor concentrations.
# [3] = system: Candida tropicalis; assay: MIC of scopularin, agar dilution assay (K-10 agar); assay type: cell-based
# Protocol: (§2) The following methodology was used to determine the miniumum inhibitory concentration (hereinafter referred to as MIC) of scopularin.
# (§3) The aerobic test organisms were grown in approximately 15-20ml of Antibiotic Assay Broth (Difco) by inoculating (in tubes) the broth with a loopful of the organism from a BHI (Difco) agar slant. The inoculated tubes were incubated at 37° C. for 18 to 24 hours. These cultures are assumed to contain 10^7 colony forming units (CFU) per ml and the cultures were diluted 1:100 to give a final inoculum level of 10^5 CFU; dilutions were made with Yeast Beef Broth (Difco).
# (§4) Scopularin was dissolved in an appropriate diluent at a concentration of 1,000 μg/ml. Two-fold dilutions were made in Yeast Beef Broth (Difco), resulting in a range from 1000 µg/ml to 0.5 μg/ml. 1.5 ml of each dilution was placed into individual petri dishes to which 13.5ml of K-10 agar was added. The composition of K-10 agar is:
# (§5) The final drug concentration in the agar ranged from 100 μg/ml to 0.05 μg/ml. Organism growth control plates containing agar only were prepared and inoculated before and after the test plates. The organisms were applied to the agar surface of each plate with a Denly Multipoint Inoculator (which delivers approximately 0.001 ml of each organism) resulting in a final inoculum of 10^4 CFU on the agar surface.
# (§6) The plates were incubated at 37° C. for 18 hours and the MICs determined. The MIC is the lowest concentration of compound inhibiting growth of the organism.
# [4] = system: Trichophyton mentagrophytes; assay: MIC of scopularin, agar dilution assay (K-10 agar); assay type: cell-based; conditions: SC2637, 18 h; Trichophyton mentagrophytes SC 2637
# Protocol: as §2, §3, §4, §5, §6
# [5] = system: Candida guilliermondii; assay: MIC of scopularin, agar dilution assay (K-10 agar); assay type: cell-based; conditions: Meyerozyma guilliermondii
# Protocol: as §2, §3, §4, §5, §6
# [6] = system: Candida stellatoidea; assay: MIC of scopularin, agar dilution assay (K-10 agar); assay type: cell-based; conditions: Candida albicans, SC2211, 18 h; Candida stellatoidea SC 2211
# Protocol: as §2, §3, §4, §5, §6
# [7] = system: Candida krusei; assay: MIC of scopularin, agar dilution assay (K-10 agar); assay type: cell-based; conditions: Pichia kudriavzevii
# Protocol: as §2, §3, §4, §5, §6
# [8] = system: Candida pseudotropicalis; assay: MIC of scopularin, agar dilution assay (K-10 agar); assay type: cell-based; conditions: Kluyveromyces marxianus, SC11, 18 h; Candida pseudotropicalis SC 11,241
# Protocol: as §2, §3, §4, §5, §6
# [9] = system: Aspergillus fumigatus; assay: MIC of scopularin, agar dilution assay (K-10 agar); assay type: cell-based; conditions: SC2100, 18 h; Aspergillus fumigatus SC 2100
# Protocol: as §2, §3, §4, §5, §6
# [10] = system: Trichophyton rubrum; assay: MIC of scopularin, agar dilution assay (K-10 agar); assay type: cell-based; conditions: SC9199, 18 h; Trichophyton rubrum SC 9199
# Protocol: as §2, §3, §4, §5, §6
# [11] = system: Epidermophyton floccosum; assay: MIC of scopularin, agar dilution assay (K-10 agar); assay type: cell-based; conditions: SC9185, 18 h; Epidermophyton floccosum SC 9185
# Protocol: as §2, §3, §4, §5, §6
# [12] = system: Candida glabrata; assay: MIC of scopularin, agar dilution assay (K-10 agar); assay type: cell-based; conditions: Nakaseomyces glabratus, SC11, 18 h; Candida glabrata SC 11,267
# Protocol: as §2, §3, §4, §5, §6
# [13] = system: Microsporum canis; assay: MIC of scopularin, agar dilution assay (K-10 agar); assay type: cell-based; conditions: SC9237, 18 h; Microsporum canis SC 9237
# Protocol: as §2, §3, §4, §5, §6
# [14] = system: Candida albicans; assay: MIC of scopularin, agar dilution assay (K-10 agar); assay type: cell-based
# Protocol: as §2, §3, §4, §5, §6
# [15] = system: Candida parakrusei; assay: MIC of scopularin, agar dilution assay (K-10 agar); assay type: cell-based
# Protocol: as §2, §3, §4, §5, §6
# T1 sequence (P10613 whole entry): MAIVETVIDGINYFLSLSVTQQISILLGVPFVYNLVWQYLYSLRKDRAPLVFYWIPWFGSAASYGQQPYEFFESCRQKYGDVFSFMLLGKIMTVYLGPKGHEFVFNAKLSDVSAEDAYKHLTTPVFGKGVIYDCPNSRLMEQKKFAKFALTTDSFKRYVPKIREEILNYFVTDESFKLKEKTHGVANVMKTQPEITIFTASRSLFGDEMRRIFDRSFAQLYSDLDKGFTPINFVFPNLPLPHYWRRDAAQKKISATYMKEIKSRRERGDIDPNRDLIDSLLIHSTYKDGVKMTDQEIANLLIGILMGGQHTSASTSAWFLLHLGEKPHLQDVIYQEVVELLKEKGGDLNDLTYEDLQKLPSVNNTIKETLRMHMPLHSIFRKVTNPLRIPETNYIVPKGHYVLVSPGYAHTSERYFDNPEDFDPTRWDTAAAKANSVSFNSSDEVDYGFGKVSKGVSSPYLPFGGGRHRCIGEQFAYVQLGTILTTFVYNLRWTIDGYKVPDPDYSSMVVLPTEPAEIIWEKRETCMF
# T2 sequence (P10613 whole entry): as above
compound,measurement,setting,value
"CCC/C=C/C=C/C=C(\C)[C@H]1OC[C@@H](C)[C@@H](OC)[C@@H]1OC(=O)CN (relative stereo) [Scopularin, (2α, 3β, 4α, 5α)-Tetrahydro-4-methoxy-5-methyl-2-(1-methyl-1,3,5-nonatrienyl)-2H-pyran-3-ol, aminoacetate ester]","concentration causing accumulation of lanosterol, consistent with inhibition of lanosterol demethylase",[1],6.7×10^-7
same,IC50,[2],36 µM
same,MIC,"[3]; SC10, 18 h, Candida tropicalis SC 10,597",25 µg/mL
same,MIC,"[3]; SC2963, 18 h, Candida tropicalis SC 2963 (AmphoB^R)",6.3 µg/mL
same,MIC,"[3]; SC8159, 18 h, Candida tropicalis SC 8159",25 µg/mL
same,MIC,"[3]; SC9861, 18 h, Candida tropicalis SC 9861 (AmphoB^R)",25 µg/mL
same,MIC,[4],0.2 µg/mL
same,MIC,"[5]; SC2210, 18 h, Candida guilliermondii SC 2210",12.5 µg/mL
same,MIC,"[5]; SC2996, 18 h, Candida guilliermondii SC 2996",0.4 µg/mL
same,MIC,[6],25 µg/mL
same,MIC,"[7]; SC2967, 18 h",0.4 µg/mL
same,MIC,"[7]; SC2968, 18 h, Candida krusei SC 2968, read-out: MIC",1.6 µg/mL
same,MIC,"[7]; SC2969, 18 h, Candida krusei SC 2969, read-out: MIC",1.6 µg/mL
same,MIC,[8],25 µg/mL
same,MIC,[9],50 µg/mL
same,MIC,[10],0.4 µg/mL
same,MIC,[11],0.2 µg/mL
same,MIC,[12],25 µg/mL
same,MIC,[13],0.4 µg/mL
same,MIC,"[14]; SC10, 18 h, Candida albicans SC 10,102",100 µg/mL
same,MIC,"[14]; SC10, 18 h, Candida albicans SC 10,580",50 µg/mL
same,MIC,"[14]; SC10, 18 h, Candida albicans SC 10,584",25 µg/mL
same,MIC,"[14]; SC10, 18 h, Candida albicans SC 10,585",50 µg/mL
same,MIC,"[14]; SC11, 18 h, Candida albicans SC 11,422",50 µg/mL
same,MIC,"[14]; SC12, 18 h, Candida albicans SC 12,734 (Bacilysin^R)",100 µg/mL
same,MIC,"[14]; SC14, 18 h, Candida albicans SC 14,021 (Aculeacin^R)",50 µg/mL
same,MIC,"[14]; SC5314, 18 h, Candida albicans SC 5314",50 µg/mL
same,MIC,"[14]; SC9177, 18 h, Candida albicans SC 9177",50 µg/mL
same,MIC,"[14]; SC9721, 18 h, Candida albicans SC 9721",50 µg/mL
same,MIC,"[15]; SC2621, 18 h, Candida parakrusei SC 2621",0.8 µg/mL
same,MIC,"[15]; SC2966, 18 h, Candida parakrusei SC 2966",1.6 µg/mL
